Assay results from US20130345214A1, “Lipoxygenase Inhibitors” (SRI International, Inc., priority 2011, published 2013).
Read-outs that look alike come from different tables or passages of the source.

Tested on: amyloid-beta (Abeta) formation
Test: secreted Abeta40/Abeta42 ELISA in N2A-APPswe cells
Format: cell-based
Settings: Mus musculus, 24 hours treatment
Description: A neuronal cell-based screening assay capable of sensitive and selective detection of secreted Aβ40 and Aβ42 was established. Mouse neuro-2A neuroblastoma (N2A) cells were co-transfected with pSV2neo selection plasmid and a human APP gene carrying the K670N/M671L Swedish mutations (APPswe) that are known to cause early-onset AD. The transfected cells were selected in G418-containing medium, and single colonies were analyzed for the expression of APPswe. The resulting stable cell line, N2A-APPswe, provides a platform for screening inhibitors that alter Aβ formation from the human APPswe gene. Levels of secreted Aβ40 and Aβ42 in the medium can be quantified by ELISA kits. Table 4 provides results for exemplary subject bisindole compounds on amyloid-beta (Abeta) formation at 5 μM after 24 hours treatment in N2A-APPswe cells.

[1] = read-out: Abeta 40 formation (% of control)
[2] = read-out: Abeta 42 formation (% of control)

## Fc1ccc2[nH]c3c(OCC4CCCN4)c4[nH]c5ccc(F)cc5c4c(Cl)c3c2c1 (stereo not drawn)
[1]
  activity at 5 µM: 86%
[2]
  activity at 5 µM: 62%

## Fc1ccc2[nH]c3c(OCCN4CC[C@H](F)C4)c4[nH]c5ccc(F)cc5c4cc3c2c1
[1]
  activity at 5 µM: 75%
[2]
  activity at 5 µM: 35%

## Fc1ccc2[nH]c3c(OCC4CCCO4)c4[nH]c5ccc(F)cc5c4cc3c2c1 (stereo not drawn)
[1]
  activity at 5 µM: 74%
[2]
  activity at 5 µM: 42%

## Fc1ccc2[nH]c3c(OCCn4cncn4)c4[nH]c5ccc(F)cc5c4cc3c2c1
[1]
  activity at 5 µM: 53%
[2]
  activity at 5 µM: 30%

## COc1c2[nH]c3ccc(F)cc3c2c(N2CCOCC2)c2c1[nH]c1ccc(F)cc12
[1]
  activity at 5 µM: 77%
[2]
  activity at 5 µM: 43%

## Fc1ccc2[nH]c3c(C(F)(F)F)c4[nH]c5ccc(F)cc5c4cc3c2c1
[1]
  activity at 5 µM: 81%
[2]
  activity at 5 µM: 47%

## Fc1ccc2[nH]c3c(OCCN4CCCCC4)c4[nH]c5ccc(F)cc5c4cc3c2c1
[1]
  activity at 5 µM: 82%
[2]
  activity at 5 µM: 19%

## Cc1nnn(CCOc2c3[nH]c4ccc(F)cc4c3cc3c2[nH]c2ccc(F)cc23)n1
[1]
  activity at 5 µM: 66%
[2]
  activity at 5 µM: 36%

## Cc1nnnn1CCOc1c2[nH]c3ccc(F)cc3c2cc2c1[nH]c1ccc(F)cc12
[1]
  activity at 5 µM: 66%
[2]
  activity at 5 µM: 36%

## F[C@@H]1CN[C@H](COc2c3[nH]c4ccc(Cl)cc4c3cc3c2[nH]c2ccc(Cl)cc23)C1
[1]
  activity at 5 µM: 59%
[2]
  activity at 5 µM: 3%

## c1ccc2c(c1)[nH]c1c(OCCCN3CCOCC3)c3[nH]c4ccccc4c3cc12
[1]
  activity at 5 µM: 95%
[2]
  activity at 5 µM: 25%

## N=C(N)NCCCOc1c2[nH]c3ccc(Cl)cc3c2cc2c1[nH]c1ccc(Cl)cc12
[1]
  activity at 5 µM: 77%
[2]
  activity at 5 µM: 8%

## CN(C)CCOc1c2[nH]c3ccc(F)cc3c2cc2c1[nH]c1ccc(F)cc12 [drawing 24]
[1]
  activity at 5 µM: 79%
[2]
  activity at 5 µM: 76%

## Clc1ccc2[nH]c3c(OCCCn4cncn4)c4[nH]c5ccc(Cl)cc5c4cc3c2c1 [drawing 25]
[1]
  activity at 5 µM: 66%
[2]
  activity at 5 µM: 54%

## Nc1nnn(CCOc2c3[nH]c4ccc(Cl)cc4c3cc3c2[nH]c2ccc(Cl)cc23)n1 [drawing 26]
[1]
  activity at 5 µM: 86%
[2]
  activity at 5 µM: 75%

## Nc1nnnn1CCOc1c2[nH]c3ccc(Cl)cc3c2cc2c1[nH]c1ccc(Cl)cc12 [drawing 27]
[1]
  activity at 5 µM: 81%
[2]
  activity at 5 µM: 71%

## N=C(N)NCCCOc1c2[nH]c3ccc(F)cc3c2cc2c1[nH]c1ccc(F)cc12 [drawing 28]
[1]
  activity at 5 µM: 82%
[2]
  activity at 5 µM: 58%

## Fc1ccc2[nH]c3c(OC4CCNC4)c4[nH]c5ccc(F)cc5c4cc3c2c1 (stereo not drawn) [drawing 29]
[1]
  activity at 5 µM: 71%
[2]
  activity at 5 µM: 9%

## Clc1ccc2[nH]c3c(OCC4CCCN4)c4[nH]c5ccc(Cl)cc5c4cc3c2c1 (stereo not drawn) [drawing 30]
[1]
  activity at 5 µM: 69%
[2]
  activity at 5 µM: 59%

## Fc1ccc2[nH]c3c(OCC4CCCN4)c4[nH]c5ccc(F)cc5c4c(C(F)(F)F)c3c2c1 (stereo not drawn) [drawing 32]
[1]
  activity at 5 µM: 89%
[2]
  activity at 5 µM: 69%

## CN(C)CCOc1c2[nH]c3ccc(F)cc3c2c(Cl)c2c1[nH]c1ccc(F)cc12 [drawing 33]
[1]
  activity at 5 µM: 68%
[2]
  activity at 5 µM: 55%

## Fc1ccc2[nH]c3c(OC[C@@H]4C[C@H](F)CN4)c4[nH]c5ccc(F)cc5c4cc3c2c1 [drawing 34]
[1]
  activity at 5 µM: 93%
[2]
  activity at 5 µM: 67%

## CCOC(=O)c1ccc2[nH]c3c(O[C@H]4CCNC4)c4[nH]c5ccc(C(=O)OCC)cc5c4cc3c2c1 [drawing 35]
[1]
  activity at 5 µM: 70%
[2]
  activity at 5 µM: 48%

## Fc1ccc2[nH]c3c(OCC4CCCN4)c4[nH]c5ccc(F)cc5c4cc3c2c1 (stereo not drawn) [drawing 36]
[1]
  activity at 5 µM: 65%
[2]
  activity at 5 µM: 52%
